{"source": "patent US11564913B2", "about": "“Compositions and methods for treating cancer” (Children's Hospital Medical Center, priority 2019, dated 2023)", "key": {"[1]": {"system": "MDA-MB-231 cells", "assay": "Cell spreading on fibronectin", "format": "cell-based, human", "details": "30 min exposure, serum-free", "experimental": "FIG. 6: IODVA1 inhibits cell-substratum and cell-cell interactions. (A) IODVA1 impedes spreading of MCF7 and MDA-MB-231 cells on fibronectin. MCF7, T47D, and MDA-MB-231 cells were incubated on fibronectin coated coverslips for 10 min, then further incubated with the indicated concentrations of IODVA1 for 30 min in serum-free media, fixed and observed by bright field microscopy. Areas of single cells were calculated from 6 random fields (no less than 300 cells total per treatment group). Results shown are mean±s.e.m. of a single experiment and are representative of three independent experiments. (B) Effects of IODVA1 treatment on spheroid formation in MCF10A, MCF7, T47D, and MDA-MB-231 cells. […] Aggregates and spheroids were dissociated with accutase and trituration, and the number of live cells was determined by trypan blue exclusion. […]\nApplicants assessed if IODVA1 interferes with cell spreading on the extracellular matrix, an event that is also governed by the rearrangement of the actin cytoskeleton. […] No changes in the area in T47D cells were detected, although more rounded cells in the presence of IODVA1 were observed.\nFor cell spreading, MDA-MB-231, MCF7 and T47D were seeded on fibronectin-coated coverslips in serum-free media. […] Six random fields were imaged under 20× objective and cell area of individual cells were quantified to assess the degree of spreading (ImageJ). […]"}, "[2]": {"molecular_target": "T1, recombinant Vav3 (Homo sapiens, UniProt Q9UKW4)", "T1 construct": "His6; made in house; host or cells: E. coli BL21 (DE3) or T7 Express, co-expressed with groEL-groES", "T1 sequence (Q9UKW4 whole entry, species assumed)": "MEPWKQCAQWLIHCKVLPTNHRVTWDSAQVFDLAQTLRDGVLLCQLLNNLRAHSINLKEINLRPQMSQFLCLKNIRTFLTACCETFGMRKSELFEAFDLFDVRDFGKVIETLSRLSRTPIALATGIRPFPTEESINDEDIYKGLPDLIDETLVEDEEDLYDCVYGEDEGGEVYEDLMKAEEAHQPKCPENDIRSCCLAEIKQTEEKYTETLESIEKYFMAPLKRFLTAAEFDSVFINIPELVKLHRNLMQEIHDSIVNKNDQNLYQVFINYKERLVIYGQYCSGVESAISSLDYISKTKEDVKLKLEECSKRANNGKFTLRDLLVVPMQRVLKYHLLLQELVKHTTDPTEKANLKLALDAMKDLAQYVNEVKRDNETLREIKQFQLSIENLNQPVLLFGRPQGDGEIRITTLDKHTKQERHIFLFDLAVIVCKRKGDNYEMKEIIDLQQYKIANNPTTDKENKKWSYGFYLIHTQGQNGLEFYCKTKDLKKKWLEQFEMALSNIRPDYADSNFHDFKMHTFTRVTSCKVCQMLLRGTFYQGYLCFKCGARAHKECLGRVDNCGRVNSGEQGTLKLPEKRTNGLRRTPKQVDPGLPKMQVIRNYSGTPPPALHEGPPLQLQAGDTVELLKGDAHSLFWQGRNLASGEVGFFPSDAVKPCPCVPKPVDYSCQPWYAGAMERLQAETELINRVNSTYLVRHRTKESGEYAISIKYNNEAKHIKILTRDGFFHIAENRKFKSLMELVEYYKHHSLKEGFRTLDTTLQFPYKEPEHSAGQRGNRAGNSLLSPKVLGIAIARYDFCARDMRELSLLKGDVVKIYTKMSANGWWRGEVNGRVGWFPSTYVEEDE", "assay": "Microscale thermophoresis (MST) binding", "details": "one molecule of IODVA1 binds, read-out: binding affinity (Kd)", "experimental": "FIG. 14: IODVA1 targets Vav3 in vitro and in vivo. (A) Ba/F3 cells expressing empty vector Mieg3 or p190-BCR-ABL1 were treated with vehicle control or IODVA1 (IO1, 3 μM) for 30 min and incubated with GST-Rac and glutathione beads. Beads were washed and the protein complexes were separated on SDS-PAGE and immunoblotted for pVav3. Input Vav3 was used as control. (B) Binding affinity (Kd) between IODVA1 and Vav3 (green), LARG (brown), and RacGDP (blue). […] Error bars=SD; N=3. (C) Quantification of the average number of colonies made by bone marrow wild-type (black) and Vav3^−/− (lilac) p190-BCR-ABL1 leukemic cells treated with vehicle control or IODVA1 (IO1, 1 and 3 μM) (* p≤0.05; ** p≤0.01; *** p≤0.001; ns, not significant). (D) Representative histogram data of the cell cycle analysis of wild-type (black and grey bars) and Vav3^−/− (dark and light lilac) bone marrow cells expressing p190-BCR-ABL and treated with vehicle control or IODVA1 (IO1, 3 μM) for 20 h. (E) Quantification by densitometry of the pVav3 band from FIG. 14A. […]\nTo test this hypothesis, we measured its binding affinity (Kd) to recombinant Vav3 and Rac1 using microscale thermophoresis (MST); the catalytic domain (DH/PH) of the RhoGEF LARG served as negative control. […] Second, like Vav3, LARG contains a DH/PH domain responsible for the exchange activity such that any non-specific binding to this domain should be detected. […]"}}, "data": [{"smiles": "OC1(c2ccccn2)N=C(Nc2nc3ccccc3[nH]2)N=C1c1ccccn1", "note": "(centres unmarked) [IODVA1, (Z)-2-((1H-benzo[d]imidazol-2-yl)imino)-4,5-di(pyridin-2-yl)-2,5-dihydro-1H-imidazol-5-ol]", "values": [{"measurement": "concentration at which spreading is interfered with (decrease in cell area)", "setting": "[1]", "value": 1, "unit": "µM"}, {"measurement": "Kd", "setting": "[2]", "value": 512, "unit": "nM"}]}]}
